Experimental findings from patent publication US8524755B2 (priority 2009, dated 2013) are described below.

In one experiment the target is T1, Dopamine D2S (h) (Homo sapiens, UniProt P14416).
T1 construct: expressed in transfected cells; host or cells: HEK-293 cells
Nature of the experiment: Binding D2S (h) (aa). To be noted: read-out: % Inhibition of Control Specific Binding @ 10 μM. As for the experimental part:
(§1) Radioligand binding assay methods utilized to measure the activity of compounds of the invention will be familiar to those skilled in the art. In each assay case, the assay components such as, for example, the cell-type, ligand, reference compound and the like, will be familiar to practitioners of such an assay.
(§2) Analysis and Expression of Results: Compounds of the invention were tested in the biochemical assays and percent inhibition of specific binding was determined. The specific ligand binding to the receptors is defined as the difference between the total binding and the nonspecific binding determined in the presence of an excess of unlabelled ligand. The results are expressed as a percent inhibition of control specific binding (100−((measured specific binding/control specific binding)×100)) obtained in the presence of test compounds.

A further experiment addresses T2, GnRH (LH-RH) (Rattus norvegicus, UniProt P30969).
T2 construct: rat pituitary gland; from tissue; host or cells: rat pituitary gland
T2 sequence (P30969 1-327): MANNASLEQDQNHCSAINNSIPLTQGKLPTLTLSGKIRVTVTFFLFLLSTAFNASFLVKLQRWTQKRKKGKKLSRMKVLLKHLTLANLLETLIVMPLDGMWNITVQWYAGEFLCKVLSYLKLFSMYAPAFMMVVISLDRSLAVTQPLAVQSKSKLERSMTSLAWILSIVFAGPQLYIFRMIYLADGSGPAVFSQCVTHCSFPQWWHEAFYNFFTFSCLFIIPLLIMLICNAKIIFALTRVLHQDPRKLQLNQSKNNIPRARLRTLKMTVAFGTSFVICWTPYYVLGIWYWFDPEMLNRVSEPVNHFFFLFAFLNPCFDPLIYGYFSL
The experiment is described as follows: Binding GnRH (LH-RH) (ag). To be noted: read-out: % Inhibition of Control Specific Binding @ 10 μM. As for the experimental part:
as §1, §2

Another experiment addresses T3, Neurokinin NK3 (h) (Homo sapiens, UniProt P29371).
T3 construct: expressed in transfected cells; host or cells: CHO cells
T3 sequence (P29371 1-465): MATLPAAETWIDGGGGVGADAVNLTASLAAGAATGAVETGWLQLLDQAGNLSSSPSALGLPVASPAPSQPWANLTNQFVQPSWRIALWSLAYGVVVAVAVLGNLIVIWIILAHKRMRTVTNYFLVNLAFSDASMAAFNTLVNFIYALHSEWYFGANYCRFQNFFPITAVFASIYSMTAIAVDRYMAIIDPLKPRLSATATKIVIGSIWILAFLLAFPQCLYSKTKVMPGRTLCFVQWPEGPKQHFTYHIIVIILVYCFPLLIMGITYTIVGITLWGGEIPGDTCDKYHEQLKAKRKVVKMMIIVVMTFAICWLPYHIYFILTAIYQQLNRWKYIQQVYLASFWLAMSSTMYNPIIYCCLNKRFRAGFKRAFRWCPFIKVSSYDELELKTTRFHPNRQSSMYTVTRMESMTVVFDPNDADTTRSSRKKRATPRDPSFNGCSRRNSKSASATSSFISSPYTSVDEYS
The experiment is described as follows: Binding NK3 (h) (aa). As to conditions: read-out: % Inhibition of Control Specific Binding @ 10 μM. As for the experimental part: as §1, §2

The subject of experiment [1] is Ca^2+ channel (L, verapamil site) (phenylalkylamine). Nature of the experiment: Binding Ca2+ channel (L, verapamil site) (aa). Further details: species or system rat. As for the experimental part:
as §1, §2

Another experiment concerns the target T4, PDE3A (h) (Homo sapiens, UniProt Q14432).
T4 construct: host or cells: Sf9 cells
The experiment is described as follows: Enzyme assay PDE3A (h). The experiment is classed as biochemical. As to conditions: read-out: % Inhibition of Control Values @ 10 μM. An excerpt: The enzyme assays provided below will be familiar to those skilled in the art.
Analysis and Expression of Results: The results are expressed as a percent of control specific activity ((measured specific activity/control specific activity)×100) obtained in the presence of the test compounds.

T4 sequence (Q14432 whole entry): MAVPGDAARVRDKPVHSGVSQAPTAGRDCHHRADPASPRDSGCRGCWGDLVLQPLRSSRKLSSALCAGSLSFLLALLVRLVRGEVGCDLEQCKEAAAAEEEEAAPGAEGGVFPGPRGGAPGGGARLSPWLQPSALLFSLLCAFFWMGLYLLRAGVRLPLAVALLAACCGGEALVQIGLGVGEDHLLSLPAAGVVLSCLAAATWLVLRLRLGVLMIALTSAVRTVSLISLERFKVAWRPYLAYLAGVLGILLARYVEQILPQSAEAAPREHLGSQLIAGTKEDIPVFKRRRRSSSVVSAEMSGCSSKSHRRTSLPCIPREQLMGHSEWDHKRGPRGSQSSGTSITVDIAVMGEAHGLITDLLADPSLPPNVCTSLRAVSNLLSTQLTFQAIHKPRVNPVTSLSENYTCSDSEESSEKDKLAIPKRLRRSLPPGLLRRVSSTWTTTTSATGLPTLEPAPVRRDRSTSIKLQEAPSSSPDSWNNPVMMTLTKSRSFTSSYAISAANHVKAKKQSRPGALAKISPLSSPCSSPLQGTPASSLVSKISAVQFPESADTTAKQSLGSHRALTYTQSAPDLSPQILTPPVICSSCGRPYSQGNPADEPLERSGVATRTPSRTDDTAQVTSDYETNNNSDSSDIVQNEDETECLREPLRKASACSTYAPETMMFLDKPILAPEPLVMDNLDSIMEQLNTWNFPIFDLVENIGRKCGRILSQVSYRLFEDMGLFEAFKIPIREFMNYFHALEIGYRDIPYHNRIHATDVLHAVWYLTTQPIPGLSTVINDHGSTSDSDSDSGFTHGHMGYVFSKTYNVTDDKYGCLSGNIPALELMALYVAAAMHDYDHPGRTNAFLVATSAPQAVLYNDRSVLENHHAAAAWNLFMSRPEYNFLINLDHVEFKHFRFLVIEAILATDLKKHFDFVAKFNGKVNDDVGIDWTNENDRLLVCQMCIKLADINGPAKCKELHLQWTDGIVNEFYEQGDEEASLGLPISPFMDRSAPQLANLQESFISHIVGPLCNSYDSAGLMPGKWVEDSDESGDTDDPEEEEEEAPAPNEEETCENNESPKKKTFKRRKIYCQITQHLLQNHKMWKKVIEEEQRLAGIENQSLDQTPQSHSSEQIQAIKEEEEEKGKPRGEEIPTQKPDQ
T1 sequence (P14416 1-414 isoform P14416-2): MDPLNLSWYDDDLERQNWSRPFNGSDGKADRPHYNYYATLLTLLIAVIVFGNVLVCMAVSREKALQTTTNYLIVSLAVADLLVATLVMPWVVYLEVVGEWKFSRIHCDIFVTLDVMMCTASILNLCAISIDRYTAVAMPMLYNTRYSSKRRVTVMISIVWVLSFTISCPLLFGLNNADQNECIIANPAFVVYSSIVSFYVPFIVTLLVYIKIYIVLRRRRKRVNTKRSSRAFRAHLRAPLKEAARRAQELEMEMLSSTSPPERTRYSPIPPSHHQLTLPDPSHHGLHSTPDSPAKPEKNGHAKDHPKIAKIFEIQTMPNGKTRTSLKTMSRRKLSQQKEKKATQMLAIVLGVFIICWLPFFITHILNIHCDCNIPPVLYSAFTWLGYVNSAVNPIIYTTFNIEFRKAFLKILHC

By inhibition is commonly meant the change of the read-out against control, counted positive when it falls. As for `CC1(C)C(=O)N(c2ccc(C#N)c(C(F)(F)F)c2)C(=S)N1c1ccc(C(=O)O)c(F)c1` [(MI), 4-(3-(4-cyano-3-(trifluoromethyl)phenyl)-5,5-dimethyl-4-oxo-2-thioxoimidazolidin-1-yl)-2-fluorobenzoic acid], the inhibition at 10 µM is -16% at Dopamine D2S (h), -21% on GnRH (LH-RH), -11% at Neurokinin NK3 (h) and 3% on PDE3A (h). Further, the “% Inhibition of Control Specific Binding @ 10 μM” value (“% Inhibition” for short) in experiment [1] was −2%.
The like results for `CC1(C)C(=O)N(c2ccc(C#N)c(C(F)(F)F)c2)C(=S)N1c1ccc(C(N)=O)c(F)c1` [(MII), 4-(3-(4-Cyano-3-(trifluoromethyl)phenyl)-5,5-dimethyl-4-oxo-2-thioxoimidazolidin-1-yl)-2-fluorobenzamide] were, in that order, -8%, -51%, 3%, 0% and −13%.
On to `CC1(C)C(=O)N(c2ccc(C#N)c(C(F)(F)F)c2)C(=O)N1c1ccc(C(N)=O)c(F)c1` [(MIII), 4-(3-(4-cyano-3-(trifluoromethyl)phenyl)-5,5-dimethyl-2,4-dioxoimidazolidin-1-yl)-2-fluorobenzamide], for which the inhibition at 10 µM is -22% at Dopamine D2S (h), 5% on GnRH (LH-RH), -2% at Neurokinin NK3 (h) and 4% on PDE3A (h). In addition, in experiment [1], the “% Inhibition” value is on record as −1%.
Take `CNC(=O)c1ccc(N2C(=O)N(c3ccc(C#N)c(C(F)(F)F)c3)C(=O)C2(C)C)cc1F` [(MIV), 4-(3-(4-cyano-3-(trifluoromethyl)phenyl)-5,5-dimethyl-2,4-dioxoimidazolidin-1-yl)-2-fluoro-N-methylbenzamide]: the inhibition at 10 µM on Dopamine D2S (h) is -17%; on GnRH (LH-RH) it was 0%; at Neurokinin NK3 (h), -7%; on PDE3A (h), 2%. For the same molecule, in experiment [1], the “% Inhibition” value is on record as −5%.
